Source: publication PMC6166654 (Leukemia, 2018)

Assays:
[1] = test system: SHP2-knocked out TF-1 cell lines (TF1/KO1, TF1/KO2); experiment: Cell growth and cell lysate analysis in SHP2 knockout cells; assay type: cell-based, human; settings: medium with GM-CSF
TF1/SHP2^E69K cells [2] = experiment: Cell growth in GM-CSF free medium; assay type: cell-based, human; settings: read-out: cell growth IC50, 5 days
TF1/SHP2^E69K cells [3] = experiment: Immunoblot analysis of cell lysates; assay type: cell-based, human; settings: 2 days of SHP099 treatment
MV4-11 cells = experiment: Immunoblot analysis of cell lysates; assay type: cell-based
TF1/SHP2^A72V cells = experiment: Immunoblot analysis of cell lysates; assay type: cell-based, human; settings: 2 days of SHP099 treatment
TF1/SHP2^E76K cells [4] = experiment: Methylcellulose colony formation assay; assay type: cell-based, human; settings: methylcellulose culture, 10 µM SHP099, day 7
TF1/SHP2^D61Y cells = experiment: Immunoblot analysis of cell lysates; assay type: cell-based, human; settings: 2 days of SHP099 treatment
TF1/SHP2^E69K cells [5] = experiment: Methylcellulose colony formation assay; assay type: cell-based, human; settings: methylcellulose culture, 10 µM SHP099, day 7
TF1/SHP2^E76K cells [6] = experiment: Immunoblot analysis of cell lysates; assay type: cell-based, human; settings: 2 days of SHP099 treatment
TF-1 cells [7] = experiment: Cell growth; assay type: cell-based, human; settings: read-out: cell growth IC50, medium with GM-CSF, 5 days
[8] = test system: MV4-11 myeloid leukemia cells; experiment: Cell growth; assay type: cell-based; settings: read-out: cell growth IC50; MV4-11 cells; 5 days
TF-1 cells [9] = experiment: Immunoblot analysis of cell lysates; assay type: cell-based, human

## CC1(N)CCN(c2cnc(-c3cccc(Cl)c3Cl)c(N)n2)CC1 [SHP099]
[1]
  effects in SHP2-knocked out TF-1 cell lines: little effects
TF1/SHP2^E69K cells [2]
  IC50: 1.46 ± 0.46 µM
TF1/SHP2^E69K cells [3]
  Bcl-XL level: reduced
  PARP cleavage: induction
  pERK1/2 level: reduced
MV4-11 cells
  Bcl-XL level: reduced
  PARP cleavage: induced
  pERK1/2 level: reduced
TF1/SHP2^A72V cells
  Bcl-XL level: little effect
  PARP cleavage: did not induce
  pERK1/2 level: little effect
TF1/SHP2^E76K cells [4]
  GM-CSF hypersensitivity: did not affect
  cytokine-independent colonies: little effect
TF1/SHP2^D61Y cells
  Bcl-XL level: little effect
  PARP cleavage: did not induce
  pERK1/2 level: little effect
TF1/SHP2^E69K cells [5]
  GM-CSF hypersensitivity: lost
  cytokine-independent colonies: eliminated
TF1/SHP2^E76K cells [6]
  Bcl-XL level: little effect
  PARP cleavage: did not induce
  pERK1/2 level: little effect
TF-1 cells [7]
  IC50: 1.73 ± 0.52 µM
[8]
  IC50: 0.32 ± 0.11 µM
TF-1 cells [9]
  Bcl-XL level: reduced
  PARP cleavage: induced
  active ERK: inhibited
